Experiments:
Type in all cases: in vivo
rice = test: Test Example 4: effect on crop by soil treatment (symbol b); settings: application herbicide amount 320 g/ha
Method in brief: (§1)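 Grown at 25° C. to 30° C. in a greenhouse, the crops came from seed sown spot-wise in sterilized diluvial soil under roughly 1.5 cm of covering soil.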

Galium spurium = test: Test Example 5: herbicidal effect by foliage application, plastic box (symbol Q); settings: 320 g/ha, 3 weeks after application
Method in brief: (§2)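 Seeds were sown in sterilized diluvial soil, covered with about 1.5 cm of soil and grown 14 days in a greenhouse at 25° C. to 30° C. An emulsifiable formulation diluted in water to a set rate was sprayed over foliage, and injury was scored 3 weeks later.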

Scirpus juncoides [1] = test: Test Example 2: herbicidal activity, application during weed generation in submerged conditions (symbol B); settings: Table 23; application herbicide amount 320 g/ha; grade 0-5 by criteria of Test Example 1
Method in brief: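 Paddy pot test, submerged (4 cm water), alluvial soil, mixed sowing; greenhouse 25–30° C. Emulsion formulation diluted to predetermined rate, applied onto floodwater at 1–2 leaf stage. Visual herbicidal rating at 3 wk post-treatment.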

Chenopodium album = test: Test Example 5: herbicidal effect by foliage application, plastic box (symbol O); settings: 320 g/ha, 3 weeks after application
Method in brief: as §2

soybean = test: Test Example 5: effect on crop by foliage application, plastic box (symbol d); settings: 320 g/ha, 3 weeks after application
Method in brief: (§3)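 Sterilized diluvial soil, plastic box (21 × 13 × 7 cm); spot sowing, ~1.5 cm soil cover; greenhouse 25–30° C.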

Digitaria ciliaris = test: Test Example 5: herbicidal effect by foliage application, plastic box (symbol F); settings: 320 g/ha, 3 weeks after application
Method in brief: as §2

Lolium multiflorum Lam. = test: Test Example 5: herbicidal effect by foliage application, plastic box (symbol K); settings: 320 g/ha, 3 weeks after application
Method in brief: as §2

rapeseed = test: Test Example 4: effect on crop by soil treatment (symbol g); settings: application herbicide amount 320 g/ha
Method in brief: as §1

Avena fatua = test: Test Example 4: herbicidal effect by soil treatment (symbol I); settings: application herbicide amount 320 g/ha
Method in brief: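 Seeds were sown in sterilized diluvial soil, covered with about 1.5 cm of soil, and the soil surface was sprayed with a water-diluted emulsion of the compound at a predetermined rate. Plants grew in a greenhouse at 25° C. to 30° C.; effects were scored visually 3 weeks after application.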

Monochoria vaginalis = test: Test Example 1: herbicidal activity, application before weed generation in submerged conditions (symbol C); settings: application herbicide amount 320 g/ha
Method in brief: (§4)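 Weeds are sown into submerged alluvial soil alongside transplanted 2.5-leaf rice, and the compound, as an emulsion diluted to a set rate, is applied onto the water before emergence. Rating on the 0–5 herbicidal-ratio scale follows 3 weeks of greenhouse growth at 25–30 °C.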

Scirpus juncoides [2] = test: Test Example 1: herbicidal activity, application before weed generation in submerged conditions (symbol B); settings: application herbicide amount 320 g/ha
Method in brief: as §4

corn [3] = test: Test Example 5: effect on crop by foliage application, plastic box (symbol c); settings: 320 g/ha, 3 weeks after application
Method in brief: as §3

Veronica persica = test: Test Example 5: herbicidal effect by foliage application, plastic box (symbol R); settings: 320 g/ha, 3 weeks after application
Method in brief: as §2

corn [4] = test: Test Example 4: effect on crop by soil treatment (symbol c); settings: application herbicide amount 320 g/ha
Method in brief: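 Seeds were sown in spots on sterilized diluvial soil in a plastic box and covered with about 1.5 cm of soil. Plants were then grown in a greenhouse at 25° C. to 30° C.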

| Structure (SMILES) | Effect on crop grade, b: directly sowed rice plant (rice) | Q: Galium spurium, herbicidal effect (criteria of Test Example 1) (Galium spurium) | Herbicidal effect grade, B: Scirpus juncoides (Scirpus juncoides [1]) | O: Chenopodium album, herbicidal effect (criteria of Test Example 1) (Chenopodium album) | d: soybean, effect on crop (criteria of Test Example 1) (soybean) | F: Digitaria ciliaris, herbicidal effect (criteria of Test Example 1) (Digitaria ciliaris) | K: Lolium multiflorum Lam., herbicidal effect (criteria of Test Example 1) (Lolium multiflorum Lam.) | Effect on crop grade, g: rapeseed (rapeseed) | Herbicidal effect grade, I: Avena fatua (Avena fatua) | Herbicidal effect grade, C: Monochoria vaginalis (Monochoria vaginalis) | Herbicidal effect grade, B: Scirpus juncoides (Scirpus juncoides [2]) | c: corn, effect on crop (criteria of Test Example 1) (corn [3]) | R: Veronica persica, herbicidal effect (criteria of Test Example 1) (Veronica persica) | Effect on crop grade, c: corn (corn [4]) |
| --- | --- | --- | --- | --- | --- | --- | --- | --- | --- | --- | --- | --- | --- | --- |
| CC#Cc1cc(C)c(C2=C(O)CC(CC(C)=O)C2=O)c(C)c1 (stereo not drawn) [7-010] | 5 (Herbicidal ratio of 90% or more (almost completely withered)) | 0 (Herbicidal ratio of 5% or lower (almost no effect)) | 5 (Herbicidal ratio of 90% or more (almost completely withered)) | 2 (Herbicidal ratio of 20% or higher and lower than 40%) | 3 (Herbicidal ratio of 40% or higher and lower than 70%) | 5 (Herbicidal ratio of 90% or more (almost completely withered)) | 5 (Herbicidal ratio of 90% or more (almost completely withered)) | 3 (Herbicidal ratio of 40% or higher and lower than 70%) | 2 (Herbicidal ratio of 20% or higher and lower than 40%) | 1 (Herbicidal ratio of 5% or higher and lower than 20%) | 5 (Herbicidal ratio of 90% or more (almost completely withered)) | 5 (Herbicidal ratio of 90% or more (almost completely withered)) | 4 (Herbicidal ratio of 70% or higher and lower than 90%) | 5 (Herbicidal ratio of 90% or more (almost completely withered)) |
| CC(=O)CC1CC(O)=C(c2c(C)cc(C)cc2Br)C1=O (stereo not drawn) [7-011] | 5 (Herbicidal ratio of 90% or more (almost completely withered)) | 0 (Herbicidal ratio of 5% or lower (almost no effect)) | 2 (Herbicidal ratio of 20% or higher and lower than 40%) | 3 (Herbicidal ratio of 40% or higher and lower than 70%) | 0 (Herbicidal ratio of 5% or lower (almost no effect)) | 4 (Herbicidal ratio of 70% or higher and lower than 90%) | 5 (Herbicidal ratio of 90% or more (almost completely withered)) | 4 (Herbicidal ratio of 70% or higher and lower than 90%) | 0 (Herbicidal ratio of 5% or lower (almost no effect)) | 0 (Herbicidal ratio of 5% or lower (almost no effect)) | 1 (Herbicidal ratio of 5% or higher and lower than 20%) | 2 (Herbicidal ratio of 20% or higher and lower than 40%) | 1 (Herbicidal ratio of 5% or higher and lower than 20%) | 3 (Herbicidal ratio of 40% or higher and lower than 70%) |
| CC(=O)CC1CC(O)=C(c2c(C)cc(OCc3ccccc3)cc2C)C1=O (stereo not drawn) [7-018] | 0 (Herbicidal ratio of 5% or lower (almost no effect)) | 0 (Herbicidal ratio of 5% or lower (almost no effect)) | 0 (Herbicidal ratio of 5% or lower (almost no effect)) | 0 (Herbicidal ratio of 5% or lower (almost no effect)) | 0 (Herbicidal ratio of 5% or lower (almost no effect)) | 5 (Herbicidal ratio of 90% or more (almost completely withered)) | 2 (Herbicidal ratio of 20% or higher and lower than 40%) | 0 (Herbicidal ratio of 5% or lower (almost no effect)) | 0 (Herbicidal ratio of 5% or lower (almost no effect)) | 0 (Herbicidal ratio of 5% or lower (almost no effect)) | 0 (Herbicidal ratio of 5% or lower (almost no effect)) | 1 (Herbicidal ratio of 5% or higher and lower than 20%) | 0 (Herbicidal ratio of 5% or lower (almost no effect)) | 0 (Herbicidal ratio of 5% or lower (almost no effect)) |
| COc1cc(C)c(C2=C(O)CC(CC(C)=O)C2=O)c(C)c1 (stereo not drawn) [7-020] | 5 (Herbicidal ratio of 90% or more (almost completely withered)) | 0 (Herbicidal ratio of 5% or lower (almost no effect)) | 0 (Herbicidal ratio of 5% or lower (almost no effect)) | 0 (Herbicidal ratio of 5% or lower (almost no effect)) | 0 (Herbicidal ratio of 5% or lower (almost no effect)) | 5 (Herbicidal ratio of 90% or more (almost completely withered)) | 4 (Herbicidal ratio of 70% or higher and lower than 90%) | 0 (Herbicidal ratio of 5% or lower (almost no effect)) | 0 (Herbicidal ratio of 5% or lower (almost no effect)) | 0 (Herbicidal ratio of 5% or lower (almost no effect)) | 0 (Herbicidal ratio of 5% or lower (almost no effect)) | 0 (Herbicidal ratio of 5% or lower (almost no effect)) | 0 (Herbicidal ratio of 5% or lower (almost no effect)) | 0 (Herbicidal ratio of 5% or lower (almost no effect)) |
| CC(=O)CC1CC(O)=C(c2c(C)cc(-n3cccn3)cc2C)C1=O (stereo not drawn) [7-024] | 5 (Herbicidal ratio of 90% or more (almost completely withered)) | 0 (Herbicidal ratio of 5% or lower (almost no effect)) | 0 (Herbicidal ratio of 5% or lower (almost no effect)) | 0 (Herbicidal ratio of 5% or lower (almost no effect)) | 0 (Herbicidal ratio of 5% or lower (almost no effect)) | 0 (Herbicidal ratio of 5% or lower (almost no effect)) | 3 (Herbicidal ratio of 40% or higher and lower than 70%) | 0 (Herbicidal ratio of 5% or lower (almost no effect)) | 0 (Herbicidal ratio of 5% or lower (almost no effect)) | 2 (Herbicidal ratio of 20% or higher and lower than 40%) | 1 (Herbicidal ratio of 5% or higher and lower than 20%) | 1 (Herbicidal ratio of 5% or higher and lower than 20%) | 0 (Herbicidal ratio of 5% or lower (almost no effect)) | 0 (Herbicidal ratio of 5% or lower (almost no effect)) |
| COc1cc(Br)cc(C)c1C1=C(O)CC(CC(C)=O)C1=O (stereo not drawn) [7-027, 2-(4-bromo-2-methoxy-6-methylphenyl)-3-hydroxy-5-(2-oxopropyl)cyclopent-2-enone] | 5 (Herbicidal ratio of 90% or more (almost completely withered)) | 0 (Herbicidal ratio of 5% or lower (almost no effect)) | 0 (Herbicidal ratio of 5% or lower (almost no effect)) | 0 (Herbicidal ratio of 5% or lower (almost no effect)) | 0 (Herbicidal ratio of 5% or lower (almost no effect)) | 5 (Herbicidal ratio of 90% or more (almost completely withered)) | 5 (Herbicidal ratio of 90% or more (almost completely withered)) | 0 (Herbicidal ratio of 5% or lower (almost no effect)) | 0 (Herbicidal ratio of 5% or lower (almost no effect)) | 2 (Herbicidal ratio of 20% or higher and lower than 40%) | 0 (Herbicidal ratio of 5% or lower (almost no effect)) | 5 (Herbicidal ratio of 90% or more (almost completely withered)) | 0 (Herbicidal ratio of 5% or lower (almost no effect)) | 3 (Herbicidal ratio of 40% or higher and lower than 70%) |
